Results as given in patent US6255517A, “Thymol derivatives having anti-tumor activity, and anti-cancer agent comprising the same” (Zee; Ok Pyo, priority 1998, dated 2001).

Legend:
Assay type in all cases: cell-based
[1] = test system: A549; experiment: SRB cytotoxicity (anti-tumor activity) in vitro, A549; conditions: Homo sapiens, A549, 48 h, read-out: ED50
Excerpt: (§1) Anti-Tumor (Cyto-Toxicity) Effect in vitro of the Compound According to the Present Invention
(§2) The method for detecting cyto-toxicity employed in the present experiment is Sulforhodamin B Bioassay (SRB) method, which was developed by National Cancer Institute (NCI) in the United States in 1989, for the purpose of measuring anti-tumor activity in vitro.
(§3) The tumor cells used in the experiments via SRB method are listed below:
A549: non small cell lungcarcinoma
(§4) The tumor cells listed above are all human tumor cell-lines, which were distributed from NCI in the United States and subcultured in Korea Chemical Institute. As a culture medium, RPMI 1640 culture medium supplemented with 5% FBS (fetal bovine serum) was used. Cultivation was performed in an 5% CO2 incubator with constant temperature (37° C.) and humidity. The subculture was carried out every three or four days, and a solution of 0.25% tyrosine and 3 mM trans-1,2-diaminocyclohexane-n,n,n,n-tetracetic acid (CDTA) dissolved in PBS (phosphate buffered saline) was used in order to release cells from the surface of the container.
(§5) The test compound synthesized according to the present invention was diluted to have a concentration of 30.0 μg/ml, 10.0 μg/ml, 3.0 μg/ml, 1.0 μg/ml, 0.3 μg/ml and 0.1 μg/ml, respectively, and the cyto-toxicity (anti-tumor activity) of the compound was measured. The maximum concentration of the sample was not more than 30.0 μg/ml. In order to prepare the samples for detection, DMSO (dimethylsulfoxide) was used, if necessary. The concentration of DMSO added was not more than 0.5%. Before added to the tumor cells, the sample solution, which was diluted via several steps, is filtered through a Millipore filter. In a sterile condition, the sample for detecting cyto-toxicity was prepared by means of SRB method using human tumor cell-lines such as A549, SK-OV-3, SK-MEL-2, XF498 and HCT15.
(§6) The subcultured tumor cells were released from the surface of instrument by using tyrosine-CDTA solution, and then charged on a 96-well flat bottom microplate to make the cell number 5×10^3 (A549, HCT15), 1×10^4 (SK-MEL-2, XF498) and 2×10^4 (SK-OV-3) for each cell. The tumor cells are attached on the bottom by cultivating in a CO2 incubator. After removing the culture medium by using an aspirator, the medium is eliminated by using log dose of six concentrations. To each well, 100 μl of 10% TCA (trichloroacetic acid) is added, and the plate was left for 1 hour at 4° C. to fix the cells on the bottom surface of the plate.
(§7) Then, the plate was washed with distilled water 5-6 times to completely remove the residual TCA solution, and dried up at room temperature. To each well of the completely dried plate, 100 μl of dye solution, in which 0.4% SRB solution was dissolved, was added to dye the cells for 30 minutes, and the cells were washed with 1% acetic acid to remove excess SRB which was not combined with the cells. The dyed cell plates were dried at room temperature, and 100 μl of 10 mM trisma base solution was added to each well. The solution was mixed by a titer plate shaker for 10 minutes to elute the dye solution. Then, the absorbance at 520 nm was measured by using a microplate reader.
(§8) In order to calculate the cyto-toxicity (anti-tumor activity) of the samples on tumor cells, the number of tumor cells at the point of adding the sample (Tz, zero time), the number of cells when only an excess amount of culture medium was added instead of the sample and cultured for 48 hours (C, control), and the number of cells when each concentration of the sample was added and cultured for 48 hours (T, test) were measured respectively. The cyto-toxicity was determined according to the following formulas:
(§9) When Tz>T: [(T-Tz)/(C-Tz)]×100
(§10) When Tz<T: [(T-Tz)/Tz]×100
(§11) From the calculated values thus obtained, ED50 (50% effective dose) [the concentration when the sample inhibits 50% of the growth of the tumor cells] was determined by the use of data regression tool of LOTUS program. […]

[2] = test system: SK-MEL-2; experiment: SRB cytotoxicity (anti-tumor activity) in vitro, SK-MEL-2; conditions: Homo sapiens, SK-MEL-2 malignant melanoma, 48 hours, read-out: ED50 (the source's name)
Excerpt: as §1, §2, §3
SK-MEL-2: malignant melanoma, metastasis to skin of thigh
as §4, §5, §6, §7, §8, §9, §10, §11

[3] = test system: SK-OV-3; experiment: SRB cytotoxicity (anti-tumor activity) in vitro, SK-OV-3; conditions: Homo sapiens, SK-OV-3 ovary adenocarcinoma, 48 hours, read-out: ED50 (the source's name)
Excerpt: as §1, §2, §3
SK-OV-3: adenocarcinoma, ovary malignant ascites
as §4, §5, §6, §7, §8, §9, §10, §11

[4] = test system: XF498; experiment: SRB cytotoxicity (anti-tumor activity) in vitro, XF498; conditions: Homo sapiens, XF498 central nerve system tumor, 48 hours, read-out: ED50 (the source's name)
Excerpt: as §1, §2, §3
XF498: central nerve system tumor
as §4, §5, §6, §7, §8, §9, §10, §11

[5] = test system: HCT15; experiment: SRB cytotoxicity (anti-tumor activity) in vitro, HCT15; conditions: Homo sapiens, HCT-15, HCT15 colon adenocarcinoma, 48 hours, read-out: ED50 (the source's name)
Excerpt: as §1, §2, §3
HCT15: colon adenocarcinoma
as §4, §5, §6, §7, §8, §9, §10, §11

Compound: CC(=O)Oc1cc(C)ccc1C(O)(CO)COC(=O)Cc1ccccc1 (centres unmarked) [Compound 15-1, 10-Phenylacetoxy-8,9-dihydroxythymol acetate]
- IC50 [1]: > 100 µM
- IC50 [2]: 14.8 µM
- IC50 [3]: 39.9 µM
- IC50 [4]: 59.9 µM
- IC50 [5]: 11.6 µM
